Consider 13 compounds from patent publication US6492383B1, “Thienopyrimidine and thienopyridine derivatives useful as anticancer agents” (Pfizer Inc., priority 1998, dated 2002).

Broadly, the melting point is the temperature of the solid-liquid transition.

Where a name gives a salt, the structure may show the parent alone.

`O=[N+]([O-])c1cccc(-c2cc3ncnc(Nc4ccc5[nH]ccc5c4)c3s2)c1` [Example 10, (1H-Indol-5-yl)-[6-(3-nitro-phenyl)-thieno[3,2-d]pyrimidin-4-yl]-amine] yielded a melting point of 175 to 183 °C.
With `c1ccc(-c2cc3ncnc(Nc4ccc(NCc5c[nH]c6ccccc56)cc4)c3s2)cc1` [Example 76, N-(1H-Indol-3-ylmethyl)-N′-(6-phenyl-thieno[3,2-d]pyrimidin-4-yl)-benzene-1,4-diamine] the figure was 259 to 261 °C; with `CN(C)CCCNCc1ccc(-c2cc3ncnc(Nc4ccc5[nH]ccc5c4)c3s2)cc1` [Example 36, N-{4-[4-(1H-Indol-5-ylamino)-thieno[3,2-d]pyrimidin-6-yl]-benzyl}-N′,N′-dimethyl-propane-1,3-diamine], 148 to 160 °C.
Then `NC(=O)C1CCN(Cc2ccc(-c3cc4ncnc(Nc5ccc6[nH]ccc6c5)c4s3)cc2)CC1` [Example 44, 1-{4-[4-(1H-Indol-5-ylamino)-thieno[3,2-d]pyrimidin-6-yl]-benzyl}-piperidine-4-carboxylic acid amide], with 198 to 205 °C.
With `c1ccc(COCCNc2ccc(Nc3ncnc4cc(-c5ccccc5)sc34)cc2)cc1` [Example 73, N-(2-Benzyloxy-ethyl)-N′-(6-phenyl-thieno[3,2-d]pyrimidin-4-yl)-benzene-1,4-diamine] the figure was 201 to 203 °C; with `CNCc1ccc(-c2cc3ncnc(Nc4ccc5[nH]ccc5c4)c3s2)cc1` (as salt: mesylate) [Example 25, (1H-Indol-5-yl)-[6-(4-methylaminomethyl-phenyl)-thieno[3,2-d]pyrimidin-4-yl]-amine], 140 to 147 °C.
On to `COc1ccc(-c2cc3ncnc(Nc4ccc5[nH]ccc5c4)c3s2)cc1OC` [Example 16, [6-(3,4-Dimethoxy-phenyl)-thieno[3,2-d]pyrimidin-4-yl]-(1H-indol-5-yl)-amine], for which the melting point was in the range of 171 to 178 °C.
Then `COc1ccc(Nc2ccc(Nc3ncnc4cc(-c5ccccc5)sc34)cc2)cc1` [Example 62, N-(4-Methoxy-phenyl)-N′-(6-phenyl-thieno[3,2-d]pyrimidin-4-yl)-benzene-1,4-diamine], with 210 to 211 °C; and `CC(=O)NCCNCc1ccc(-c2cc3ncnc(Nc4ccc5[nH]ccc5c4)c3s2)cc1` [Example 43, N-(2-{4-[4-(1H-Indol-5-ylamino)-thieno[3,2-d]pyrimidin-6-yl]-benzylamino}-ethyl)-acetamide], with 142 to 155 °C.
With `c1csc(CNCc2ccc(-c3cc4ncnc(Nc5ccc6[nH]ccc6c5)c4s3)cc2)c1` (as salt: mesylate) [Example 33, (1H-Indol-5-yl)-[6-(4-{[(thiophen-2-ylmethyl)-amino]-methyl}-phenyl)-thieno[3,2-d]pyrimidin-4-yl]-amine] the figure was 111 to 121 °C; with `O=C(c1ccco1)N1CCN(Cc2ccc(-c3cc4ncnc(Nc5ccc6[nH]ccc6c5)c4s3)cc2)CC1` [Example 46, Furan-2-yl-(4-{4-[4-(1H-indol-5-ylamino)-thieno[3,2-d]pyrimidin-6-yl]-benzyl}-piperazin-1-yl)-methanone], 167 to 174 °C.
With `CN1CCN(Cc2ccc(-c3cc4ncnc(Nc5ccc6[nH]ccc6c5)c4s3)cc2)CC1` (as salt: mesylate) [Example 26, (1H-Indol-5-yl)-{6-[4-(4-methyl-piperazin-1-ylmethyl)-phenyl]-thieno[3,2-d]pyrimidin-4-yl}-amine] the figure was 143 to 150 °C; with `CCN(CC)CCCn1ccc2cc(Nc3ncnc4cc(-c5ccccc5)sc34)ccc21` [Example 70, [1-(3-Diethylamino-propyl)-1H-indol-5-yl]-(6-phenyl-thieno[3,2-d]pyrimidin-4-yl) -amine], 178 to 180 °C.
